Reference: patent US20080226565A1, “Anticariogenic Proteins & Peptides & Saccharides” (priority 2004, published 2008)

Tests used:
[1] = test system: microaerophilic bacteria isolated from the oral cavity; experiment: Susceptibility (MIC), agar dilution, microaerophilic bacteria; format: cell-based
Method: (§1) The investigations included more than hundred strains isolated from the oral cavity: : anaerobes, microaerophilic bacteria, aerobes, Streptococcus spp. and yeast like fungi. The microorganisms were isolated from saliva, mucosal membrane, gingival pockets and caries decay. The susceptibility (MIC) of bacteria and yeastlike fungi were determined by means of plate dilution technique in agar.
(§2) The investigated samples were dissolved in sterile distilled water (immediately before the experiment) to obtain the following concentrations: 3.5, 1.7, 0.8, 0.4 and 0.2 mg/ml and were added into appropriate agar. The plates were inoculated using a Steers multipoint inoculator. Inoculum contained 10^6 CFU/spot. […]
(§3) Anaerobes. The susceptibility of bacteria was determined by means of the agar dilution methods with Brucella agar supplemented with 5% defibrinated sheep's blood, menadione and hemin. […] The susceptibility of bacteria was determined by means of the agar dilution methods with Brucella agar supplemented with 5% sheep's blood. […] The susceptibility of bacteria was determined by means of the agar dilution methods with Mueller-Hinton agar supplemented with 5% sheep's blood. […] The susceptibility to investigated samples was determined by means of the plate dilution technique in Mueller-Hinton agar. […]

[2] = Determination of the PF-value: Knoop micro hardness of tooth samples coated with product, then saliva and acetic acid (in-vitro); parameters: species or system human
From the text: The capacity to protect teeth against caries can be measured with a technique well known in the art (U.S. Pat. No. 5,279,814). Demineralization with acid, decreases the hardness of the tooth surface. The hardness can be quantified indirectly by measuring the depth of penetration of a needle in the surface (measurement of micro hardness). With this procedure, so called “Knoop” method, the needle is penetrating the surface under the pressure of constant weight and leaves a mark on the surface that allows the calculation of the depth of penetration. The more the tooth is suffering from demineralization, the softer its surface will get and the larger the depth of penetration will be (Knoop F., Peters C. G., Emerson W. B., A Sensitive Pyramidal Diamond Tool for Identation Measurments, J. Res. Natn. Bur. Stand. 23, 39-61 (1939).
The procedure includes the determination of the hardness of a human tooth sample with the Knoop method. Subsequently, the tooth is treated with an experimental protecting product outside the oral cavity.
It is cleaned softly with a paper towel until the coating is invisible.
Subsequently the tooth sample is submerged in a batch of human saliva in order to simulate the conditions in the oral cavity. After removal from the saliva batch (after 30 min.) it is treated with acid over a constant time period of 30 min. at 37° C. The acid is washed away, the tooth is dried on air and the hardness is measured again. The change in hardness (delta P in μm) is obtained by comparing with the hardness of the tooth before treatment. This experiment is repeated on other tooth samples. The effect of acid on unprotected teeth is obtained by carrying out the same procedure but without the use of an experimental protecting product (delta Pa). The protecting capacity (“PF” protection factor) of an experimental protecting compound can be defined as: […]
The ability of a product to protect teeth (PF-value) is determined with the Knoop method. A tooth sample, size 3×3×3 mm is cut from a human tooth and embedded into polymerizing resin in such a way that the surface of the tooth sample appears on the surface of the (resin) cube after the resin has become solid. The surface of the tooth is mechanically polished with rotating silicon carbide abrasive paper (Struers P1200-P2400-P4000) and the micro hardness of the enamel is determined with a Knoop diamant needle (Leitz-Wetzlar;
microdurometer “Durimet”; weight 50 gr; penetration-time: 30 seconds (Collys et al., J. Dent. Res. 1990; 69: 458-462)).
The penetration leaves a mark on the tooth surface, which is related to the depth of penetration (μm) and which can be analyzed under the microscope. […] The determination of the depth of penetration is repeated six times on each of the tooth samples and the average value is calculated. In order to determine the effect of acid on the hardness of the surface, use is made of an acetic acid buffer from Merck (pH 5; 0.1N). One drop of acid is positioned on the enamel for a period of 30 minutes at 37° C. The sample is cleaned with demineralized water and dried. The hardness is measured again according to the method of Knoop. This procedure is repeated 4 times, which means that the sample has been subjected to acid for a total period of two hours.
A graph (Y: penetration depth μm; X: 5 treatment stages) can be made on the basis of 5 average values (each of them based on six measurement), one obtained before treatment with acid, and the other 4 obtained after each of the 4 treatment-stages with acid. A logaritmic regressionline is calculated.

Streptococcus spp. = experiment: Susceptibility (MIC), agar dilution, Streptococcus spp.; format: cell-based; settings: 6 from 9 Streptococcus strains
Method: as §1, §2, §3

Substance: Epsilon-polylysine (elys; e-polylysine) [Product 6]
- inhibitory concentration ([1]; 17 from 31 microaerophilic strains): 0.2 mg/mL
- PF factor ([2]; 3.6% product/water w/w, with CaCl2.2H2O and KH2PO4): 70

Substance: bisphosphonylated epsilon-polylysine [bisphosphonylated e-polylysine]
- mic value ([1]; 12 strains from 31 microaerophilic strains): 0.2 mg/mL
- concentration inhibiting growth (MIC) (Streptococcus spp.): 1700 µg/mL
- PF factor ([2]; 1.5% product/water w/w): 99

Substance: casein phosphopeptide epsilon-polylysine copolymer [(CPP x elys)n]
- PF factor ([2]; 7.8% product/water w/w): 94
